Test results: ChEMBL document CHEMBL1201862, “PubChem BioAssay data set” (2004)
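A five-concentration, 48-hour dose response in 96-well plates underlies each endpoint, interpolated linearly between surrounding concentrations. Here, GI50 denotes the concentration required for 50% inhibition of growth.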 Calls of active or inactive are those of the source. Rule as the data show it: active = GI50 up to about 1.1 µM and inactive = higher.

What was measured:
Assay in all cases: DTP human tumour cell line panel, 48 h
[1] = system: HCT-15
[2] = system: A549
[3] = system: Malme-3M
[4] = system: EKVX
[5] = system: OVCAR-5
[6] = system: RXF 393
[7] = system: HCC 2998
[8] = system: UACC-257
[9] = system: SF-268
[10] = system: HOP-62
[11] = system: HCT-116
[12] = system: UO-31
[13] = system: HT-29
[14] = system: UACC-62
[15] = system: CCRF-CEM
[16] = system: NCI/ADR-RES
[17] = system: LOX IMVI
[18] = system: SW-620
[19] = system: M14

| SMILES | GI50 [1] [µM] | GI50 [2] | GI50 [3] | GI50 [4] | GI50 [5] | GI50 [6] | GI50 [7] | GI50 [8] | GI50 [9] | GI50 [10] | GI50 [11] | GI50 [12] | GI50 [13] | GI50 [14] | GI50 [15] | GI50 [16] | GI50 [17] | GI50 [18] | GI50 [19] |
| --- | --- | --- | --- | --- | --- | --- | --- | --- | --- | --- | --- | --- | --- | --- | --- | --- | --- | --- | --- |
| N#Cc1c(-c2ccc(F)cc2)c(-c2ccc(F)cc2)nn(CCO)c1=O | 0.132 | 0.25 µM (active) | 0.743 µM (active) | 0.47 µM (active) | 1.82 µM (inactive) | 0.378 µM (active) | 0.605 µM (active) | 1.19 µM (inactive) | 0.875 µM (active) | 0.493 µM (active) | 0.119 µM (active) | 1.38 µM (inactive) | 0.143 µM (active) | 0.14 µM (active) | 0.564 µM (active) | 0.805 µM (active) | – | – | – |
| C=C1c2c(n(S(=O)(=O)c3ccccc3)c3ccccc23)[C@@]2(C(=O)OC)CC3C=CC2N1C3 | > 100 | > 100 µM (inactive) | > 100 µM (inactive) | > 100 µM (inactive) | > 100 µM (inactive) | > 100 µM (inactive) | > 100 µM (inactive) | > 100 µM (inactive) | > 100 µM (inactive) | > 100 µM (inactive) | > 100 µM (inactive) | – | > 100 µM (inactive) | > 100 µM (inactive) | > 100 µM (inactive) | > 100 µM (inactive) | > 100 µM (inactive) | > 100 µM (inactive) | > 100 µM (inactive) |
| Cc1cc(Cl)nc(Nc2nc3ccccc3[nH]2)n1 | > 100 | > 100 µM (inactive) | > 100 µM (inactive) | – | > 100 µM (inactive) | > 100 µM (inactive) | > 100 µM (inactive) | > 100 µM (inactive) | > 100 µM (inactive) | > 100 µM (inactive) | > 100 µM (inactive) | > 100 µM (inactive) | > 100 µM (inactive) | > 100 µM (inactive) | > 100 µM (inactive) | > 100 µM (inactive) | > 100 µM (inactive) | > 100 µM (inactive) | > 100 µM (inactive) |
| COc1cc2ccnc3c2c(c1OC)N(C)C=C3 | 26.9 | 17.7 µM (inactive) | – | 23.2 µM (inactive) | 33 µM (inactive) | 25.1 µM (inactive) | 16.4 µM (inactive) | 34.4 µM (inactive) | 35.2 µM (inactive) | 28.3 µM (inactive) | 11 µM (inactive) | 14.2 µM (inactive) | – | 26.4 µM (inactive) | – | 24.3 µM (inactive) | 21.5 µM (inactive) | 29.6 µM (inactive) | 26.3 µM (inactive) |
| O=C(O)CCc1nc(-c2ccccc2-n2cccc2)no1 | > 100 | > 100 µM (inactive) | 52.6 µM (inactive) | > 100 µM (inactive) | > 100 µM (inactive) | > 100 µM (inactive) | > 100 µM (inactive) | > 100 µM (inactive) | > 100 µM (inactive) | > 100 µM (inactive) | > 100 µM (inactive) | > 100 µM (inactive) | 57.3 µM (inactive) | > 100 µM (inactive) | – | > 100 µM (inactive) | > 100 µM (inactive) | > 100 µM (inactive) | 89.1 µM (inactive) |
| CCCCC1(NN=C2CCCCC2)C(=O)N(c2ccccc2)N(c2ccccc2)C1=O | > 100 | > 100 µM (inactive) | – | > 100 µM (inactive) | – | > 100 µM (inactive) | > 100 µM (inactive) | > 100 µM (inactive) | > 100 µM (inactive) | > 100 µM (inactive) | > 100 µM (inactive) | > 100 µM (inactive) | > 100 µM (inactive) | > 100 µM (inactive) | 21.6 µM (inactive) | > 100 µM (inactive) | – | > 100 µM (inactive) | > 100 µM (inactive) |
| Cc1ccc(S(=O)(=O)n2cc(-c3cnc(N)c(Br)n3)c3ccccc32)cc1 | 1.21 | 2.22 µM (inactive) | – | 3.48 µM (inactive) | 4.39 µM (inactive) | 0.484 µM (active) | 3.29 µM (inactive) | 12.9 µM (inactive) | 2.96 µM (inactive) | 6.73 µM (inactive) | 0.83 µM (active) | 4.18 µM (inactive) | 1.47 µM (inactive) | 3.7 µM (inactive) | – | 2.04 µM (inactive) | 2.94 µM (inactive) | 1.04 µM (active) | 1.37 µM (inactive) |
| CC(C)C(=O)NCC[C@@H](CNC(=O)OC(C)(C)C)NC(=O)OC(C)(C)C | > 100 | > 100 µM (inactive) | > 100 µM (inactive) | > 100 µM (inactive) | > 100 µM (inactive) | > 100 µM (inactive) | > 100 µM (inactive) | > 100 µM (inactive) | > 100 µM (inactive) | > 100 µM (inactive) | > 100 µM (inactive) | > 100 µM (inactive) | > 100 µM (inactive) | > 100 µM (inactive) | > 100 µM (inactive) | > 100 µM (inactive) | – | > 100 µM (inactive) | > 100 µM (inactive) |
| CCOC(=O)N(CC)c1c(C(F)(F)F)cc(-c2ccccc2)[nH]c1=O | 40.6 | 45.3 µM (inactive) | – | 33.5 µM (inactive) | > 100 µM (inactive) | 28.2 µM (inactive) | 54.2 µM (inactive) | 48.3 µM (inactive) | – | 73.5 µM (inactive) | 48.5 µM (inactive) | 56.1 µM (inactive) | 61.1 µM (inactive) | 66.2 µM (inactive) | 16.4 µM (inactive) | 24.7 µM (inactive) | 68.4 µM (inactive) | 54.7 µM (inactive) | 66.4 µM (inactive) |
| COc1ccc2nc(-c3ccc(OC(=O)N(C)C)cc3)cn2c1 | – | > 100 µM (inactive) | > 100 µM (inactive) | > 100 µM (inactive) | > 100 µM (inactive) | – | > 100 µM (inactive) | > 100 µM (inactive) | > 100 µM (inactive) | > 100 µM (inactive) | > 100 µM (inactive) | – | 27.8 µM (inactive) | > 100 µM (inactive) | 67.5 µM (inactive) | > 100 µM (inactive) | 82.8 µM (inactive) | > 100 µM (inactive) | 75.7 µM (inactive) |
| CC(C)(C)OC(=O)CN1C(=O)CC1CC(=O)c1ccccc1 (stereo unspecified) | 18.2 | > 100 µM (inactive) | 17.3 µM (inactive) | 17.2 µM (inactive) | 17.5 µM (inactive) | 18.5 µM (inactive) | 23.5 µM (inactive) | 18.2 µM (inactive) | 17.9 µM (inactive) | 17 µM (inactive) | 24.8 µM (inactive) | 17.2 µM (inactive) | 17.2 µM (inactive) | 19.3 µM (inactive) | – | 35.1 µM (inactive) | 16.9 µM (inactive) | 3.58 µM (inactive) | 16.3 µM (inactive) |
| CC(C)NC(=O)OCc1c(COC(=O)NC(C)C)c(-c2cc[n+](COC(=O)CC(C)(C)C)cc2)n2c1CCC2 | > 100 | > 100 µM (inactive) | – | > 100 µM (inactive) | – | > 100 µM (inactive) | > 100 µM (inactive) | > 100 µM (inactive) | – | > 100 µM (inactive) | – | > 100 µM (inactive) | – | – | > 100 µM (inactive) | > 100 µM (inactive) | – | > 100 µM (inactive) | > 100 µM (inactive) |
| CC1=CC(=O)/C(=C/n2c(=S)[nH]c3ccc([N+](=O)[O-])cc32)C(=O)O1 | > 100 | > 100 µM (inactive) | – | > 50.1 µM (inactive) | > 100 µM (inactive) | > 100 µM (inactive) | > 100 µM (inactive) | > 100 µM (inactive) | > 100 µM (inactive) | > 100 µM (inactive) | > 100 µM (inactive) | > 100 µM (inactive) | > 100 µM (inactive) | > 100 µM (inactive) | > 100 µM (inactive) | > 100 µM (inactive) | > 100 µM (inactive) | > 100 µM (inactive) | > 100 µM (inactive) |
| O=C(CSc1n[nH]c(=O)[nH]c1=O)NNC(=O)c1cccc2nc3ccccc3nc12 | 72.8 | 39.4 µM (inactive) | 26.5 µM (inactive) | > 100 µM (inactive) | > 100 µM (inactive) | > 100 µM (inactive) | 40.8 µM (inactive) | 58.7 µM (inactive) | > 100 µM (inactive) | > 100 µM (inactive) | > 100 µM (inactive) | – | 49.4 µM (inactive) | > 100 µM (inactive) | > 100 µM (inactive) | > 100 µM (inactive) | 46.1 µM (inactive) | > 100 µM (inactive) | 68.1 µM (inactive) |
| CCO[C@H]1O[C@@H]2OC3(C)CCC4[C@H](C)CCC([C@H]1C)[C@]42OO3 (stereo partly specified) | 23.9 | 40.8 µM (inactive) | 42.3 µM (inactive) | > 49.1 µM (inactive) | > 30.2 µM (inactive) | > 100 µM (inactive) | 97.1 µM (inactive) | – | > 100 µM (inactive) | > 100 µM (inactive) | 35.2 µM (inactive) | 15.4 µM (inactive) | 61.2 µM (inactive) | > 67.1 µM (inactive) | 3.44 µM (inactive) | 23 µM (inactive) | 24.2 µM (inactive) | > 44.9 µM (inactive) | 53.5 µM (inactive) |
| O=c1[nH]cc(/N=C/c2cc(Cl)cc(Cl)c2O)c(=O)[nH]1 | 36.4 | > 100 µM (inactive) | 20.8 µM (inactive) | 30.7 µM (inactive) | 88.1 µM (inactive) | 26.2 µM (inactive) | 33.3 µM (inactive) | 27.7 µM (inactive) | 14.2 µM (inactive) | 26.1 µM (inactive) | 20.6 µM (inactive) | 29.5 µM (inactive) | 26.5 µM (inactive) | 26.5 µM (inactive) | 20 µM (inactive) | 21.8 µM (inactive) | – | – | 21 µM (inactive) |
